This is an account of results in ChEMBL document CHEMBL2417420, “Autotaxin inhibition: development and application of computational tools to identify site-selective lead compounds” (Bioorg Med Chem, 2013).

Peptide text beside a SMILES is read from it. * marks the point of attachment. Cbz = O=C(OCc1ccccc1)*

The target in this assay is Autotaxin (Homo sapiens, UniProt Q13822). In words: Inhibition of C-terminal FLAG-tagged human recombinant autotaxin using synthetic substrate FS-3 at 10 uM measured every 2 mins by FRET assay relative to control.
With `NC(=O)C(Cc1ccc(O)cc1)NC(=O)c1ccc(N2CCN(C(=O)C(N)Cc3ccccc3)CC2)nc1` (stereo unspecified), the inhibition worked out at 10%.
Take `CC1CCC(C(C)C)C(OCC(=O)N2CCCN(c3ncccc3C(=O)N3CCCC3C(N)=O)CC2)C1` (stereo unspecified): the inhibition was found to be 20%.
For the molecule `Cc1cc2cc(C#N)c(SCC(=O)Nc3ccc(N(C)C)cc3)nc2cc1C`, the inhibition was 0%.
The figure for `COc1cc(C2CC(=O)NC(SCC(N)=O)=C2C#N)ccc1O` (stereo unspecified) is 0%; for `CCc1nc2ccc(C(=O)NCCc3c[nH]c4ccccc34)cn2c1N(C)C(=O)C1CCCCC1` it is 0%.
Take `COc1ccc(CCn2c(CCc3ccccc3)nc3cc(C(=O)NCCOCCO)ccc32)cc1OC`: the inhibition came to 10%.
For the molecule `COCCNS(=O)(=O)c1ccc2c(c1)NC(=O)C(Cc1ccccc1)N2C(=O)CNCc1ccc(OC)cc1` (stereo unspecified), the inhibition was 30%.
Consider `CCN(C(=O)c1cccc(/C=C2\SC(=S)N([C@H](Cc3ccccc3)C(=O)O)C2=O)c1)c1ccccc1`, for which the inhibition worked out at 30%.
As for `Cc1cc(C)cc(CC(=O)N2CCN(c3ccc(C(=O)NC(C(N)=O)C(C)O)cn3)CC2)c1` (stereo unspecified), the inhibition is 20%.
With `N#CC1CCCC(NC(=O)c2cccc(S(=O)(=O)Nc3ccc(Br)cc3)c2)C1` (stereo unspecified), the inhibition is 0%.
Consider `CC(C)c1ccc(OCC(=O)N2CCN(c3ncccc3C(=O)N3CCCC3C(N)=O)CC2C)cc1` (stereo unspecified), for which the inhibition came to 30%.
Turning to `CC(=O)C1=C(C)NC(SCC(=O)Nc2ccc(Br)cc2)=C(C#N)C1c1ccc(O)cc1` (stereo unspecified), the inhibition was 30%.
With `COc1ccc(-c2cc(C(F)(F)F)n3nc(C(=O)Nc4cc(Sc5ccc(Br)cc5)cc([N+](=O)[O-])c4)c(Cl)c3n2)cc1OC`, the inhibition was found to be 10%.
As for `COCCOCC(=O)N1CCN(c2ccc(C(=O)NC(C(N)=O)C(C)O)cn2)CC1C` (stereo unspecified), the inhibition is 20%.
`COc1ccc(-c2cc(C(=O)NCCC(=O)NCc3ccccc3OC)c3ccccc3n2)cc1`: the inhibition was found to be 20%.
Consider `CC(O)C(NC(=O)c1cccnc1N1CCN(C(=O)CCC(=O)c2ccccc2)CC1)C(N)=O` (stereo unspecified), for which the inhibition is 10%.
With `CCn1c2ccccc2c2cc(/C=C3\SC(=S)N([C@H](Cc4ccccc4)C(=O)O)C3=O)ccc21`, the inhibition worked out at 0%.
With `CC(=O)N1c2ccc(NC(=O)c3ccc(Cl)cc3Cl)cc2C2(c3ccccc3)N(C(C)=O)c3ccc(NC(=O)c4ccc(Cl)cc4Cl)cc3C12c1ccccc1` (stereo unspecified), the inhibition was found to be 10%.
With `CCn1c(CN2CCc3ccccc3C2)nc2cc(C(=O)NCC(O)CO)ccc21` (stereo unspecified), the inhibition was found to be 20%.
Then `CCc1cc2c(cc3c(=O)n(CCCC(=O)NCc4ccc(Cl)cc4)ncn32)s1`, with 30%.
Turning to `O=C1/C(=C\c2cccc(OCc3ccccc3F)c2)SC(=S)N1Cc1ccccc1`, the inhibition stood at 10%.
Take `CCCCCOc1ccc(/N=C2\C=C(O)C(=O)c3ccccc32)cc1`: the inhibition is 20%.
As to `CCOc1cc(/C=C2/NC(=O)N(Cc3ccccc3F)C2=O)cc(Br)c1OCc1ccc2ccccc2c1`, the inhibition was 10%.
The figure for `COC(=O)c1ccc(/C=C2/Sc3ccccc3N(Cc3ccccc3F)C2=O)cc1` is 20%.
Consider `O=C(Cc1ccccc1OC(=O)Cn1c(=O)sc2ccccc21)Cn1c(=O)sc2ccccc21`, for which the inhibition was found to be 0%.
With `CC[C@@H]1CN2CCc3cc(OC)c(OC)cc3[C@@H]2C[C@@H]1C[C@@H]1c2cc(OC)c(OC)cc2CCN1C(=O)COCC(=O)N1CCc2cc(OC)c(OC)cc2[C@@H]1C[C@H]1C[C@H]2c3cc(OC)c(OC)cc3CCN2C[C@@H]1CC`, the inhibition was 0%.
`CCCCOc1ccc(-c2nc3cc(C(=O)NCc4cc(F)ccc4F)ccc3n2CCc2ccc(OC)c(OC)c2)cc1`: the inhibition turned out to be 30%.
For `CCN(C(=O)c1ccc(/C=C2\S/C(=N\c3ccccc3)N([C@H](C)C(=O)O)C2=O)cc1)c1ccccc1`, the inhibition was 20%.
As to `CC(C)c1ccc(S(=O)(=O)N2CCn3nc(C4CCC(CNC(=O)c5ccco5)CC4)cc32)cc1` (stereo unspecified), the inhibition is 20%.
Take `COc1ccc(-c2cc(C(=O)NC(C)(C)C(=O)NCCCOC(C)C)c3ccccc3n2)cc1C`: the inhibition came out at 20%.
Regarding `COc1ccc(C2CC(=O)NC(SCC(=O)Nc3ccc(I)cc3)=C2C#N)cc1` (stereo unspecified), the inhibition stood at 20%.
On to `Cn1cc(S(=O)(=O)N2CCc3ccccc32)cc1C(=O)N1CCC(Cc2ccccc2)CC1`, for which the inhibition was 30%.
`CCc1nc2ccc(C(=O)N3CCN(C(C)=O)CC3)cn2c1N(C)C(=O)COc1ccccc1`: the inhibition turned out to be 0%.
Take `COc1ccc(/C=N/NC(=O)c2cc(O)c(O)c(O)c2)cc1Cn1nc(C)c(Br)c1C`: the inhibition was determined as 10%.
Regarding `COCCCn1c(CN2CCN(c3ccccc3F)CC2)nc2cc(C(=O)NCC(O)CO)ccc21` (stereo unspecified), the inhibition is 10%.
Turning to `Cc1[nH]n(-c2cc(Cl)c(S(=O)(=O)O)cc2Cl)c(=O)c1/N=N/c1cc(Nc2nc(Cl)nc(Nc3cccc(S(=O)(=O)O)c3)n2)ccc1S(=O)(=O)O`, the inhibition was 10%.
Turning to `COc1ccc(OC)c(C(=O)NC(CC(=O)NCCc2c[nH]c3ccccc23)c2ccccc2)c1` (stereo unspecified), the inhibition was 20%.
For the molecule `Nc1c(/N=N/c2ccc(-c3ccc(/N=N/c4ccc(O)cc4)cc3)cc2)c(S(=O)(=O)O)cc2cc(S(=O)(=O)O)c(/N=N/c3ccccc3)c(O)c12`, the inhibition was found to be 0%.
As to `O=C(O)CN1C(=O)/C(=C/c2cccc(Oc3ccccc3)c2)S/C1=N\c1ccccc1`, the inhibition came to 0%.
The figure for `CC(CNC(=O)c1cc(-c2ccoc2)nc2ccccc12)C(=O)NCCNc1ccccc1` (stereo unspecified) is 10%; for `COc1cc([C@@H]2C(C(=O)c3cccs3)=C(O)C(=O)N2CCc2ccccc2)cc(Br)c1O` it is 20%; for `CCc1cc2c(cc3c(=O)n(CCCC(=O)NCc4ccc(OC(C)C)cc4)ncn32)s1` it is 20%.
On to `COc1cc(/C=C2/SC(=S)N(Cc3ccccc3)C2=O)ccc1OC(=O)c1cccs1`, for which the inhibition was 0%.
Turning to `COc1cccc(CNC2CC(=O)N(c3ccc(N4C(=O)CC(NCc5cccc(OC)c5OC)C4=O)cc3)C2=O)c1OC` (stereo unspecified), the inhibition stood at 10%.
Consider `CC(c1cc2ccccc2o1)N1CCN(C(=O)CCSc2ccc3ccccc3c2)CC1` (stereo unspecified), for which the inhibition worked out at 20%.
`O=C1/C(=C/c2cccc(Oc3ccccc3)c2)SC(=S)N1Cc1ccccc1`: the inhibition was determined as 20%.
In the case of `CCCCCCOc1ccc(C(=O)COC(=O)c2ccccc2-c2ccccc2C(=O)COC(=O)c2ccc(OCCCCCC)cc2)cc1`, the inhibition came out at 0%.
Regarding `CCCCOc1ccc(-c2nc3cc(C(=O)NCc4ccc(C(F)(F)F)cc4)ccc3n2CCc2ccc(OC)c(OC)c2)cc1`, the inhibition was 30%.
As to `Cc1ccc(C(=O)Nc2ccccc2C(=O)O)cc1S(=O)(=O)Nc1ccc(Br)cc1`, the inhibition is 0%.
On to `CC(O)C(NC(=O)c1ccc(N2CCN(C(=O)CCC(=O)c3ccccc3)CC2)nc1)C(N)=O` (stereo unspecified), for which the inhibition was 20%.
`Cc1cccc(S(=O)(=O)N2CCn3nc(C4CCC(CNC(=O)CC(C)C)CC4)cc32)c1` (stereo unspecified): the inhibition was 20%.
Turning to `CCc1ccc2c(c1)c1nnc(SCC(=O)NCc3ccc4c(c3)OCO4)nc1n2C`, the inhibition was found to be 10%.
As for `COc1ccc(CNC(=O)c2cc(-c3ccc(OC)c(OC)c3)nc3ccc(CNC(=O)c4cccc(Cl)c4)cc23)c(OC)c1`, the inhibition was 20%.
On to `CCn1c2ccccc2c2cc(/C=C3\SC(=S)N([C@H](Cc4ccc(O)cc4)C(=O)O)C3=O)ccc21`, for which the inhibition was 0%.
Turning to `COc1cc(/C=N/NC(=O)c2ccc(NC(=O)c3ccc(F)cc3)cc2)cc(Cl)c1O`, the inhibition worked out at 10%.
For `CCCCCCOc1ccc(/C=N/c2ccc(/N=C/c3ccc(OCCCCCC)cc3)c(Cl)c2)cc1`, the inhibition is 0%.
As to `CC(C)Cc1ccc(C(C)C(=O)N2CCN(c3ncccc3C(=O)NC(C(N)=O)C(C)O)CC2)cc1` (stereo unspecified), the inhibition came out at 20%.
As for `COc1cccc(CNS(=O)(=O)c2ccc3c(c2)NC(=O)C(C)N3C(=O)CN2CCN(c3ccccn3)CC2)c1OC` (stereo unspecified), the inhibition stood at 10%.
As for `CC(O)C(NC(=O)c1ccc(N2CCCN(C(=O)CCC(=O)c3ccccc3)CC2)nc1)C(N)=O` (stereo unspecified), the inhibition turned out to be 20%.
As to `CCC(C)C(NC(=O)OCc1ccccc1)C(=O)NC(Cc1ccc(O)cc1)C(N)=O` (stereo not drawn) (Cbz-Ile-Tyr-NH2; configuration not given here), the inhibition was 0%.
For the molecule `Cc1ccccc1C(=O)NCC1CCC(c2cc3n(n2)CCN3C(=O)COc2ccccc2)CC1` (stereo unspecified), the inhibition worked out at 30%.
Turning to `CCCCCC(C)(C)c1ccc(Oc2ccc(NC(=O)c3cc(/N=N/c4cccc(OC)c4)c4ccccc4c3O)cc2)cc1`, the inhibition amounted to 10%.
As to `COc1ccc(OC)c(NC(=S)N2CCn3cccc3C2c2ccc(OC)c(OC)c2)c1` (stereo unspecified), the inhibition was 30%.
As for `O=C1/C(=C\c2ccc(OCc3cccc4ccccc34)cc2)SC(=S)N1c1cccc(F)c1`, the inhibition amounted to 10%.
Regarding `COc1ccc(/C=c2/sc3n(c2=O)NC2(c4ccccc4)N(C)C(=O)N(C)C2(c2ccccc2)N=3)cc1O` (stereo unspecified), the inhibition was determined as 10%.
Consider `CCCCCCOc1ccc(/C=N/c2ccc(-c3ccc(/N=C/c4ccc(OCCCCCC)c(OC)c4)cc3)cc2)cc1CC`, for which the inhibition stood at 79.1%.
As for `Cc1cc(C)cc(CC(=O)N2CCCN(c3ccc(C(=O)NC(C(N)=O)C(C)O)cn3)CC2)c1` (stereo unspecified), the inhibition was 10%.
On to `COc1ccc(CCn2c(C(C)Oc3ccccc3)nc3cc(C(=O)NCCOCCO)ccc32)cc1OC` (stereo unspecified), for which the inhibition worked out at 20%.
The figure for `Cc1ccc(C)c(N2CCN(C3CN(C(=O)NCCc4ccccc4)CC3O)CC2)c1` (stereo unspecified) is 10%; for `O=C(NCCOCCO)c1ccc2c(c1)nc(CN1CCC(N3CCCC3)CC1)n2CC1CC1` it is 10%; for `COc1ccccc1C1CC(=O)NC(SCC(=O)Nc2ccc(Br)cc2)=C1C#N` (stereo unspecified) it is 30%.
Consider `COc1cc(OC)cc(-c2nc3cc(C(=O)NCCc4ccccc4)ccc3n2CCc2ccc(OC)c(OC)c2)c1`, for which the inhibition was determined as 30%.
For the molecule `N#CC1=C(SCC(=O)N(c2ccccc2)c2ccccc2)NC(=O)CC1c1cc(Br)c(O)c(Br)c1` (stereo unspecified), the inhibition was determined as 10%.
The figure for `CC(C)Cc1ccc(C(C)C(=O)N2CCN(c3ncccc3C(=O)NC(C(N)=O)C(C)O)CC2C)cc1` (stereo unspecified) is 30%; for `CCC(COc1ccc2oc3ccccc3c2c1)NCCC(=O)N(CC(N)=O)Cc1ccc(C)cc1` (stereo unspecified) it is 10%.
Then `CCCCS(=O)(=O)N1CCn2nc(C3CCC(CNS(=O)(=O)c4ccccc4C)CC3)cc21` (stereo unspecified), with 30%.
